Test results published in the supplement of paper PMC10307832.

Legend:
Experiment in all cases: relative viability (nuclei count vs DMSO), 5 days (fraction); higher = more cells survive
Tosedostat + Palbociclib = compound: CC(C)C[C@@H](C(=O)N[C@H](C(=O)OC1CCCC1)c1ccccc1)[C@H](O)C(=O)NO [Tosedostat] + CC(=O)c1c(C)c2cnc(Nc3ccc(N4CCNCC4)cn3)nc2n(C2CCCC2)c1=O [Palbociclib] (partner 0.5 µM)
How it was run: (§1)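 Medians of duplicate plates are given as relative viability. That measure is the nuclei count in treated wells divided by the count in vehicle wells. Counts were taken on 4× images of lung cancer cell lines in 1536-well plates, 5 days after pin-tool dosing the day after seeding with one drug alone or a fixed anchor-drug dose plus five library-drug doses (not always all listed) in √10 steps.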

[1] = compound: CC1=NN=C(O1)C2=NN=C(C=C2)N3CCC(CC3)OC4=C(C=CC(=C4)F)Cl + Nc1ncn([C@H]2C[C@H](O)[C@@H](CO)O2)c(=O)n1 [Decitabine] (partner 2 µM)
How it was run: as §1

Tosedostat + Pemetrexed = compound: CC(C)C[C@@H](C(=O)N[C@H](C(=O)OC1CCCC1)c1ccccc1)[C@H](O)C(=O)NO [Tosedostat] + Nc1nc2[nH]cc(CCc3ccc(C(=O)N[C@@H](CCC(=O)O)C(=O)O)cc3)c2c(=O)[nH]1 [Pemetrexed] (partner 0.2 µM)
How it was run: as §1

[2] = compound: CC1=NN=C(O1)C2=NN=C(C=C2)N3CCC(CC3)OC4=C(C=CC(=C4)F)Cl + Cc1nc(NC(=O)N2CCC[C@H]2C(N)=O)sc1-c1ccnc(C(C)(C)C(F)(F)F)c1 [Alpelisib] (partner 2 µM)
How it was run: as §1

Row | Cell Line | relative viability (Tosedostat + Palbociclib; first compound 0.02 µM) | relative viability (Tosedostat + Palbociclib; first compound 0.06325 µM) | relative viability (Tosedostat + Palbociclib; first compound 0.2 µM) | relative viability (Tosedostat + Palbociclib; first compound 0.6325 µM) | relative viability (Tosedostat + Palbociclib; first compound 2 µM) | relative viability ([1]; first compound 0.253 µM) | relative viability ([1]; first compound 0.8 µM) | relative viability ([1]; first compound 2.53 µM) | relative viability ([1]; first compound 8 µM) | relative viability (Tosedostat + Pemetrexed; first compound 0.02 µM) | relative viability (Tosedostat + Pemetrexed; first compound 0.06325 µM) | relative viability (Tosedostat + Pemetrexed; first compound 0.2 µM) | relative viability (Tosedostat + Pemetrexed; first compound 0.6325 µM) | relative viability (Tosedostat + Pemetrexed; first compound 2 µM) | relative viability ([2]; first compound 0.253 µM) | relative viability ([2]; first compound 0.8 µM) | relative viability ([2]; first compound 2.53 µM) | relative viability ([2]; first compound 8 µM)
1 | HCC-78 | 0.502 | 0.46 | 0.41 | 0.486 | 0.495 | 0.491 | 0.43 | 0.397 | 0.509 | 0.923 | 1.02 | 0.838 | 0.895 | 0.922 | 0.318 | 0.309 | 0.308 | 0.321
2 | IA-LM | – | – | – | – | – | – | – | – | – | – | – | – | – | – | 0.156 | 0.157 | 0.137 | 0.157
3 | NCI-H647 | 0.401 | 0.344 | 0.388 | 0.427 | 0.502 | 0.32 | 0.289 | 0.275 | 0.223 | 0.178 | 0.163 | 0.167 | 0.196 | 0.179 | 0.724 | 0.715 | 0.764 | 0.704
4 | NCI-H520 | 0.245 | 0.236 | 0.239 | 0.303 | 0.315 | 0.603 | 0.495 | 0.478 | 0.362 | 0.728 | 0.773 | 0.743 | 0.782 | 0.734 | 0.864 | 0.846 | 0.953 | 0.88
5 | NCI-H1355 | 0.351 | 0.399 | 0.384 | 0.403 | 0.374 | 0.311 | 0.333 | 0.334 | 0.339 | 1.03 | 1.05 | 1.14 | 0.952 | 0.916 | – | – | 0.78 | 0.734
6 | COR-L23 | 0.389 | 0.357 | 0.338 | 0.277 | 0.288 | 0.383 | 0.409 | 0.396 | 0.409 | 0.2 | 0.214 | 0.202 | 0.194 | 0.172 | 0.591 | 0.657 | 0.574 | 0.552
7 | NCI-H2347 | 0.411 | 0.451 | 0.407 | 0.494 | 0.4 | 0.544 | 0.593 | 0.568 | 0.471 | 0.443 | 0.425 | 0.434 | 0.421 | 0.374 | 0.788 | 0.758 | 0.801 | 0.682
8 | LC-2-ad | 0.49 | 0.496 | 0.525 | 0.446 | 0.529 | 0.335 | 0.314 | 0.381 | 0.348 | 0.299 | 0.303 | 0.289 | 0.277 | 0.251 | 0.429 | 0.371 | 0.382 | 0.341
9 | NCI-H2023 | 0.333 | 0.331 | 0.368 | 0.344 | 0.424 | 0.191 | 0.185 | 0.186 | 0.176 | 0.22 | 0.23 | 0.292 | 0.285 | 0.212 | 0.499 | 0.444 | 0.43 | 0.361
10 | NCI-H1793 | 0.302 | 0.325 | 0.339 | 0.293 | 0.375 | 0.468 | 0.482 | 0.343 | 0.452 | 0.659 | 0.832 | 0.838 | 0.849 | 0.598 | 0.716 | 0.773 | 0.717 | 0.559
11 | NCI-H2228 | 1 | 0.865 | 0.821 | 0.473 | 0.426 | – | – | – | – | 0.328 | 0.32 | 0.317 | 0.338 | 0.256 | 0.684 | 0.545 | 0.923 | 0.479
12 | COR-L 105 | 0.402 | 0.43 | 0.398 | 0.357 | 0.392 | 0.676 | 0.592 | 0.667 | 0.638 | 1.16 | 0.915 | 1.01 | 0.857 | 0.894 | 0.925 | 1.03 | 1.12 | 1.29
13 | NCI-H1650 | 0.352 | 0.39 | 0.376 | 0.417 | 0.504 | 0.338 | 0.402 | 0.387 | 0.392 | 0.416 | 0.392 | 0.413 | 0.475 | 0.526 | – | – | – | –
14 | NCI-H1299 | – | – | – | – | – | – | – | – | – | – | – | – | – | – | 0.939 | 0.877 | 0.971 | 0.868
15 | NCI-H727 | 0.715 | 0.637 | 0.617 | 0.645 | 0.597 | 0.916 | 0.873 | 0.905 | 0.862 | – | – | – | – | – | 0.569 | 0.58 | 0.593 | 0.471
16 | ChaGo-K-1 | 1.01 | 0.907 | 0.87 | 0.858 | 0.671 | 0.392 | 0.465 | 0.391 | 0.374 | 0.269 | 0.257 | 0.275 | 0.267 | 0.275 | – | – | – | –
17 | NCI-H522 | 0.964 | 0.845 | 1.02 | 1.17 | 0.945 | 0.629 | 0.624 | 0.573 | 0.65 | 1.14 | 1.02 | 1.06 | 1.06 | 0.979 | – | – | – | –
18 | NCI-H1703 | – | – | – | – | – | – | – | – | – | – | – | – | – | – | 0.313 | 0.388 | 0.337 | 0.395
19 | NCI-H1648 | 0.251 | 0.264 | 0.263 | 0.313 | 0.248 | 0.378 | 0.465 | 0.433 | 0.473 | 0.656 | 0.736 | 0.99 | 0.966 | 0.532 | – | – | – | –
20 | NCI-H2342 | 0.536 | 0.507 | 0.578 | 0.524 | 0.61 | 0.579 | 0.552 | 0.528 | 0.5 | 0.755 | 0.776 | 0.846 | 0.79 | 0.728 | – | – | – | –
21 | SW 900 | 0.446 | 0.462 | 0.479 | 0.479 | 0.466 | – | 0.467 | 0.395 | 0.426 | 0.513 | 0.527 | 0.527 | 0.474 | 0.486 | – | – | – | –
22 | A549 | – | – | – | – | – | 0.223 | 0.218 | 0.222 | 0.208 | – | – | – | – | – | 0.573 | 0.666 | 0.581 | 0.463
23 | ABC-1 | 0.826 | 0.706 | 0.704 | 0.576 | 0.531 | 0.49 | 0.539 | 0.406 | 0.423 | – | – | – | – | – | 0.729 | 0.567 | 0.568 | 0.642
